Assay results as given in patent US9271971B2, “Pyrido[3,4-B]indoles and methods of use” (Medivation Technologies, Inc., priority 2009, dated 2016).

Experiments:
[1] = biological target: T1, human recombinant adrenergic α2A receptor (Homo sapiens, UniProt P08913); assay: Adrenergic α2A radioligand binding assay; conditions: [3H]MK-912 specific binding; for inhibition at 1 µM: read-out: Percent Inhibition of ligand binding, Adrenergic (1 μM ligand conc.) α2A; for inhibition at 0.1 µM: read-out: Percent Inhibition of ligand binding, Adrenergic (0.1 μM ligand conc.) α2A
T1 construct: expressed in transfected cells; host or cells: insect Sf9 cells
T1 sequence (P08913 1-465): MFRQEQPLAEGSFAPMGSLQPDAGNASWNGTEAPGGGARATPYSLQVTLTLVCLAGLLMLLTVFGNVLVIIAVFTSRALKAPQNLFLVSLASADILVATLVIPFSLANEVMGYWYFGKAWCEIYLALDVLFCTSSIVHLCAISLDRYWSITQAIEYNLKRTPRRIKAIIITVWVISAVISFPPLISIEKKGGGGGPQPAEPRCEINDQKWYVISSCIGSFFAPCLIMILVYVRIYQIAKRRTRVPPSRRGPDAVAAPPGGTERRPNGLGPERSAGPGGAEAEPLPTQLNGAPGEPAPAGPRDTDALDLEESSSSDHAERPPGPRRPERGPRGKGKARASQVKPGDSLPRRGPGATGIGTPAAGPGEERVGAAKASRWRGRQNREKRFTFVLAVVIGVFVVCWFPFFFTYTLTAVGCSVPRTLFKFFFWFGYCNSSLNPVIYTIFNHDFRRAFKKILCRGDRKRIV
Description: To evaluate in radioligand binding assays the activity of compounds of the invention, human recombinant adrenergic α2A receptor expressed in insect Sf9 cells [Uhlen, S et al. J. Pharmacol. Exp. Ther. (1994), 271:1558] in a modified Tris-HCl buffer (50 mM Tris-HCl, pH 7.4, 12.5 mM MgCl2, 2 mM EDTA) was used. Compounds of invention were incubated with 1 nM [^3H]MK-912 for 60 min. at 25° C. MK912 was (2S-trans)-1,3,4,5′,6,6′,7,12b-octahydro-1′,3′-dimethyl-spiro[2H-benzofuro[2,3-a]quinolizine-2,4′(1′H)-pyrimidin]-2′(3′H)-one hydrochloride Non-specific binding was estimated in the presence of 10 μM WB-4101 (2-(2,6-dimethoxyphenoxyethyl)aminomethyl-1,4-benzodioxane hydrochloride). Receptor proteins were filtered and washed, the filters were then counted to determine [^3H]MK-912 specifically bound. Compounds were screened at 1 μM or lower, using 1% DMSO as vehicle. Compounds of the invention were tested in this biochemical assay. Biochemical assay results for representative compounds were presented as the percent inhibition of specific binding in Table 3.

[2] = biological target: T2, human recombinant adrenergic α2B receptor (Homo sapiens, UniProt P18089); assay: Adrenergic α2B radioligand binding assay; conditions: [3H]Rauwolscine specific binding; for inhibition at 1 µM: read-out: Percent Inhibition of ligand binding, Adrenergic (1 μM ligand conc.) α2B; for inhibition at 0.1 µM: read-out: Percent Inhibition of ligand binding, Adrenergic (0.1 μM ligand conc.) α2B
T2 construct: expressed in transfected cells; host or cells: Chinese hamster ovary (CHO-K1) cells
T2 sequence (P18089 1-450): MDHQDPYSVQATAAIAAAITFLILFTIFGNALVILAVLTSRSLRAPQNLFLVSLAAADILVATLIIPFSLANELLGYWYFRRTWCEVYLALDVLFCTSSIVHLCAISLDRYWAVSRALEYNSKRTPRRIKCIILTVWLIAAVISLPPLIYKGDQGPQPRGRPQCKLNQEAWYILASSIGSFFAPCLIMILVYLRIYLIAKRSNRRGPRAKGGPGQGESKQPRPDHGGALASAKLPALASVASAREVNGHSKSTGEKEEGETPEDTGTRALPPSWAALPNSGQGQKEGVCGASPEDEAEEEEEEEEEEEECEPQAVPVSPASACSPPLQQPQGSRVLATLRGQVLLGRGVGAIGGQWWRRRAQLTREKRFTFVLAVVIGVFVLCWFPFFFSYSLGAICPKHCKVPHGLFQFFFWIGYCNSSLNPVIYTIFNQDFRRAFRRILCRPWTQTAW
Description: To evaluate in radioligand binding assays the activity of compounds of the invention, human recombinant adrenergic α2B receptor expressed in Chinese hamster ovary (CHO-K1) cells [Uhlen, S et al., Eur J Pharmacol. (1998), 343(1):93] in a modified Tris-HCl buffer (50 mM Tris-HCl, pH 7.4, 12.5 mM MgCl2, 1 mM EDTA, 0.2% BSA) was used. Compounds of the invention were incubated with 2.5 nM [^3H]Rauwolscine for 60 min. at 25° C. Non-specific binding was estimated in the presence of 10 μM Prozosin. Receptor proteins were filtered and washed, the filters were then counted to determine [^3H]Rauwolscine specifically bound. Compounds were screened at 1 μM or lower, using 1% DMSO as vehicle. Compounds of the invention were tested in this biochemical assay. Biochemical assay results for representative compounds were presented as the percent inhibition of specific binding in Table 3.

[3] = biological target: T3, human recombinant serotonin (5-Hydroxytryptamine) 5-HT6 receptor (Homo sapiens, UniProt P50406); assay: Serotonin 5-HT6 radioligand binding assay; conditions: [3H]LSD specific binding, read-out: Percent Inhibition of ligand binding, Serotonin (1 μM ligand concentration) 5-HT6
T3 construct: expressed in transfected cells; host or cells: human HeLa cells
T3 sequence (P50406 whole entry): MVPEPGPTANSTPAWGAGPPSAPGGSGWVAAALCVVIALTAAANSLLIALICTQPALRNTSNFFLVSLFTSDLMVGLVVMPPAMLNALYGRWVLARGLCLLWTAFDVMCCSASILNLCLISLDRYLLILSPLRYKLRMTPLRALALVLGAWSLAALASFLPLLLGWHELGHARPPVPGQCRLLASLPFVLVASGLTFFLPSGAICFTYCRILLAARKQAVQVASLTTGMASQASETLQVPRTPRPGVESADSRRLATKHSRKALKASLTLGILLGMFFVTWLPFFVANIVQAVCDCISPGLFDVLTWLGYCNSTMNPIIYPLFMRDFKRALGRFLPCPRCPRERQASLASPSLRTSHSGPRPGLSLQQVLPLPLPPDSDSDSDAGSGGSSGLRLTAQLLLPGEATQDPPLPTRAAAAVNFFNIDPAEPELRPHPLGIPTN
Description: To evaluate in radioligand binding assays the activity of compounds of the invention, human recombinant serotonin (5-Hydroxytryptamine) 5-HT6 receptor expressed in human HeLa cells [Monsma, F. J. Jr et al., Mol. Pharmacol. (1993), 43:320] in a modified Tris-HCl buffer (50 mM Tris-HCl, pH 7.4, 150 mM NaCl, 2 mM Ascorbic Acid, 0.001% BSA) was used. Compounds of the invention were incubated with 1.5 nM [3H]Lysergic acid diethylamide (LSD) for 120 min. at 37° C. Non-specific binding was estimated in the presence of 5 μM Serotonin (5-HT). Receptor proteins were filtered and washed, the filters were then counted to determine[3H]LSD specifically bound. Compounds were screened at 1 μM or lower, using 1% DMSO as vehicle. Biochemical assay results are presented as the percent inhibition of specific binding in Table 4.

## COc1ccc(C(O)Cn2c3c(c4cc(C)ccc42)C2CCN(C3)C2)cc1F (stereo not drawn) [Compound 6]
[1]
  inhibition at 1 µM: 23%
[2]
  inhibition at 1 µM: 73%
[3]
  inhibition at 1 µM: 22%

## Cc1ccc2c(c1)c1c(n2CCc2ccccn2)CN2CCC1C2 (stereo not drawn) [Compound 11]
[1]
  inhibition at 1 µM: -15%
[2]
  inhibition at 1 µM: 48%
[3]
  inhibition at 1 µM: 20%

## COc1ccc(/C(C)=C/n2c3c(c4cc(C)ccc42)C2CCN(C3)C2)cc1 (stereo not drawn) [Compound 45]
[1]
  inhibition at 0.1 µM: 4%
[2]
  inhibition at 0.1 µM: 15%
[3]
  inhibition at 1 µM: 80%

## COc1ccc(C(O)Cn2c3c(c4cc(C)ccc42)C2CCN(C3)C2)cc1OC (stereo not drawn) [Compound 8]
[1]
  inhibition at 1 µM: 1%
[2]
  inhibition at 1 µM: 34%
[3]
  inhibition at 1 µM: 11%

## C/C(=C\n1c2c(c3cc(C)ccc31)C1CCN(C2)C1)c1ccccc1F (stereo not drawn) [Compound 38]
[1]
  inhibition at 0.1 µM: 3%
[2]
  inhibition at 0.1 µM: 25%
[3]
  inhibition at 1 µM: 58%

## C/C(=C\n1c2c(c3cc(C)ccc31)C1CCN(C2)C1)c1ccc(F)cc1 (stereo not drawn) [Compound 22]
[1]
  inhibition at 1 µM: 93%
[2]
  inhibition at 1 µM: 95%
[3]
  inhibition at 1 µM: 102%

## Cc1ccc(C(C)(O)Cn2c3c(c4cc(C)ccc42)C2CCN(C3)C2)cc1 (stereo not drawn) [Compound 20]
[1]
  inhibition at 1 µM: 28%
[2]
  inhibition at 1 µM: 97%
[3]
  inhibition at 1 µM: 13%

## Cc1ccc(C(O)Cn2c3c(c4cc(C)ccc42)C2CCN(C3)C2)cc1 (stereo not drawn) [Compound 5]
[1]
  inhibition at 1 µM: 44%
[2]
  inhibition at 1 µM: 78%
[3]
  inhibition at 1 µM: 14%

## Cc1ccc2c(c1)c1c(n2C(=O)Cc2ccc(Cl)cc2)CN2CCC1C2 (stereo not drawn) [Compound 36]
[1]
  inhibition at 0.1 µM: 24%
[2]
  inhibition at 0.1 µM: 13%
[3]
  inhibition at 1 µM: 38%

## Cc1ccc2c(c1)c1c(n2CC(=O)N2CCC(C)CC2)CN2CCC1C2 (stereo not drawn) [Compound 25]
[1]
  inhibition at 1 µM: -7%
[2]
  inhibition at 1 µM: -17%
[3]
  inhibition at 1 µM: -2%

## Cc1ccc2c(c1)c1c(n2CC(=O)N2CCNCC2)CN2CCC1C2 (stereo not drawn) [Compound 24]
[1]
  inhibition at 1 µM: 4%
[2]
  inhibition at 1 µM: -4%
[3]
  inhibition at 1 µM: 5%
